According to patent publication US5770380A (priority 1996, dated 1998):

Target: melittin (Apis mellifera, UniProt P01501)
Assay: biochemical
Assay type: binding, bee

Chain of melittin (P01501 44-69 limits assumed): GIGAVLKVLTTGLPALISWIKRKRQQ

CCCCOc1c2cc(C(=O)Nc3cc4cc(c3)C(=O)NCC(=O)N[C@@H](CC(=O)O)C(=O)NCC(=O)N[C@@H](CC(=O)O)C(=O)NC4)cc1Cc1cc(C(=O)Nc3cc4cc(c3)C(=O)NCC(=O)N[C@@H](CC(=O)O)C(=O)NCC(=O)N[C@@H](CC(=O)O)C(=O)NC4)cc(c1OCCCC)Cc1cc(C(=O)Nc3cc4cc(c3)C(=O)NCC(=O)N[C@@H](CC(=O)O)C(=O)NCC(=O)N[C@@H](CC(=O)O)C(=O)NC4)cc(c1OCCCC)Cc1cc(C(=O)Nc3cc4cc(c3)C(=O)NCC(=O)N[C@@H](CC(=O)O)C(=O)NCC(=O)N[C@@H](CC(=O)O)C(=O)NC4)cc(c1OCCCC)C2 [compound 1, Calix[4]arenetetracyclicpeptide1]
Kd: 1 µM
